Measured values: article PMC6175823, “Identification of novel acetylcholinesterase inhibitors designed by pharmacophore-based virtual screening, molecular docking and bioassay” (Scientific Reports, 2018)
“Also recorded” adds a separate entry of the source.

Molecular target: T1, Acetylcholinesterase from electrophorus electricus (electric eel) (Electrophorus electricus, UniProt O42275)
T1 construct: purchased Sigma (St. Louis, MO)
Assay: biochemical
Settings: modified Ellman's method, eeAChE; read-out: AchE IC50
Source text: Acetylcholinesterase from electrophorus electricus (electric eel), horse butyrylcholinesterase, Acetylcholine iodide, S-butyrylthiocholine chloride and 5,5′-dithio-bis-nitrobenzoic acid (DTNB) were purchased from the Sigma (St. Louis, MO) while bovine serum albumin (BSA) purchased from Research and Diagnostic Technology (RDT). Buffers and other chemicals were purchases from pure chemicals as a pure experimental grade. All the reagents and experimental conditions were same as described by previous reports. […] Acetylcholinesterase and butyrylcholinesterase inhibition was performed spectrometrically using acetylthiocholine and butyrylthiocholine as a substrate. Experiment was performed with slight modification in the method described by Ellman et al.[78]. Then, […] sodium phosphate buffer (pH 8.0), enzyme preparation and different concentration of test compound was mixed and incubated for 30 min followed by the addition of DTNB and the reactions was initiated by adding respective enzyme substrate like acetylthiocholine iodide, butyrylthiocholine chloride for Acetylcholinesterase and butyrylcholinesterase inhibition assay respectively. The hydrolysis of acetylthiocholine or butyrylthiocholineyield a dark yellow 5-thio-2-nitrobenzoate anion because of the reaction between DTNB with enzyme and enzyme substrate. […] Percentage inhibition was calculated taking negative control as 100%.

T1 sequence (O42275 24-633): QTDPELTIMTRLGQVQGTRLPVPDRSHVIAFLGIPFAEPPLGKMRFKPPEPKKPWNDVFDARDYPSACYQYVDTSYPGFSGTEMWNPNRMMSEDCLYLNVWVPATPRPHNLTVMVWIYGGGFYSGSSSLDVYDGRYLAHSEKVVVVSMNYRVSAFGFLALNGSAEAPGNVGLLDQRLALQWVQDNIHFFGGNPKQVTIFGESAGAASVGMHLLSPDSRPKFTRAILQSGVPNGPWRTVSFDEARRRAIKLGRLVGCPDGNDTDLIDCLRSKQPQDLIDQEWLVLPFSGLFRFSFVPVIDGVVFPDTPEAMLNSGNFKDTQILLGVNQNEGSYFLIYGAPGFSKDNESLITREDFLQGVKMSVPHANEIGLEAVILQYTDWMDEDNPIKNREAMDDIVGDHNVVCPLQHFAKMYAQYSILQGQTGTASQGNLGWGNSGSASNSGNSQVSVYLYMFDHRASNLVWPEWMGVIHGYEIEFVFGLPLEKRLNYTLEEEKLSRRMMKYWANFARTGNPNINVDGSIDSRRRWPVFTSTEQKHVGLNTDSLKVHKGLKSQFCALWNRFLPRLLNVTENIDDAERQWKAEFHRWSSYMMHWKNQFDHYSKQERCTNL

Point of comparison: `COc1ccccc1OCCN(CC(=O)CC(O)c1cccc(-c2ccccc2)c1)Cc1ccccc1` (stereo not drawn) [5c, 4-([1,1′-biphenyl]-3-yl)-1-(benzyl(2-(2-methoxyphenoxy)ethyl)amino)-4-hydroxybutan-2-one], IC50 58.3 µM. Against it:
- COc1ccccc1OCCN(Cc1ccccc1)CC(O)CC(O)c1cccc2[nH]c3ccccc3c12 (stereo not drawn) [6a, 4-(benzyl(2-(2-methoxyphenoxy)ethyl)amino)-1-(9H-carbazol-4-yl)butane-1,3-diol] — within 1.5-fold, 66 µM

Molecular target: T2, horse butyrylcholinesterase (Equus caballus, UniProt P81908)
T2 construct: purchased Sigma (St. Louis, MO)
Assay: biochemical
Type: biochemical
Settings: modified Ellman's method, horse BuChE; read-out: bAchE IC50
Source text: Acetylcholinesterase from electrophorus electricus (electric eel), horse butyrylcholinesterase, Acetylcholine iodide, S-butyrylthiocholine chloride and 5,5′-dithio-bis-nitrobenzoic acid (DTNB) were purchased from the Sigma (St. Louis, MO) while bovine serum albumin (BSA) purchased from Research and Diagnostic Technology (RDT). Buffers and other chemicals were purchases from pure chemicals as a pure experimental grade. All the reagents and experimental conditions were same as described by previous reports. […] Acetylcholinesterase and butyrylcholinesterase inhibition was performed spectrometrically using acetylthiocholine and butyrylthiocholine as a substrate. Experiment was performed with slight modification in the method described by Ellman et al.[78]. Then, […] sodium phosphate buffer (pH 8.0), enzyme preparation and different concentration of test compound was mixed and incubated for 30 min followed by the addition of DTNB and the reactions was initiated by adding respective enzyme substrate like acetylthiocholine iodide, butyrylthiocholine chloride for Acetylcholinesterase and butyrylcholinesterase inhibition assay respectively. The hydrolysis of acetylthiocholine or butyrylthiocholineyield a dark yellow 5-thio-2-nitrobenzoate anion because of the reaction between DTNB with enzyme and enzyme substrate. […] Solvent used for compound dilution was used for the negative control. Percentage inhibition was calculated taking negative control as 100%.

T2 sequence (P81908 whole entry): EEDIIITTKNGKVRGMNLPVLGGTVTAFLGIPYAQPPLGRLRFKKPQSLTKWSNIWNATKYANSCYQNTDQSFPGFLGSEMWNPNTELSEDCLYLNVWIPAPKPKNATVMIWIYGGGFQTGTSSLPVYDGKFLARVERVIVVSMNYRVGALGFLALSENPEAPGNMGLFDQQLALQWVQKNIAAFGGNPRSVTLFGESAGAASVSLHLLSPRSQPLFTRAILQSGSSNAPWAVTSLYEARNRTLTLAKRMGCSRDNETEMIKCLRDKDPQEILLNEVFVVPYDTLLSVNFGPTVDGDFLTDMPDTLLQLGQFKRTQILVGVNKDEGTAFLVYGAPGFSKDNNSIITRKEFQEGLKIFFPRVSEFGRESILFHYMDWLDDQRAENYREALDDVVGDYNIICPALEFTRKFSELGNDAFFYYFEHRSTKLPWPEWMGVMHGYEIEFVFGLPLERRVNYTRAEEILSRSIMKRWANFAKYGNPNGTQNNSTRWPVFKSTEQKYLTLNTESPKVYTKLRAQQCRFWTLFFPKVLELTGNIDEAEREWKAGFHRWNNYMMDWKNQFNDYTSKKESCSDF

`COc1ccccc1OCCN(Cc1ccccc1)CC(O)CC(O)c1cccc2[nH]c3ccccc3c12` (stereo not drawn) [6a, 4-(benzyl(2-(2-methoxyphenoxy)ethyl)amino)-1-(9H-carbazol-4-yl)butane-1,3-diol] and `COc1ccccc1OCCN(CC(=O)CC(O)c1cccc(-c2ccccc2)c1)Cc1ccccc1` (stereo not drawn) [5c, 4-([1,1′-biphenyl]-3-yl)-1-(benzyl(2-(2-methoxyphenoxy)ethyl)amino)-4-hydroxybutan-2-one] cannot be ordered by IC50: greater than 500 µM for the first, greater than 500 µM for the second.

Same assay, conditions: result in words

For `COc1ccccc1OCCN(Cc1ccccc1)CC(O)CC(O)c1cccc2[nH]c3ccccc3c12` (stereo not drawn) [6a, 4-(benzyl(2-(2-methoxyphenoxy)ethyl)amino)-1-(9H-carbazol-4-yl)butane-1,3-diol], the “effect against BchE” value was “without inhibiting; also recorded: did not showed the effect”.
With `COc1ccccc1OCCN(CC(=O)CC(O)c1cccc(-c2ccccc2)c1)Cc1ccccc1` (stereo not drawn) [5c, 4-([1,1′-biphenyl]-3-yl)-1-(benzyl(2-(2-methoxyphenoxy)ethyl)amino)-4-hydroxybutan-2-one] the “effect against BchE” value was “without inhibiting; also recorded: did not showed the effect”.

System: AChE
Assay: not given
Settings: ChEMBL dataset, Ellman assay ref 43; cited from earlier work

Point of comparison: `c1ccc(CN2CCC(Nc3ccc(-c4ccccc4)nn3)CC2)cc1` [CHEMBL1083058], “Exp. pIC50” value 4.187. Against it:
- O=C(Nc1cccc2c1C(=O)N(CCC1CCN(Cc3ccccc3)CC1)C2=O)c1ccccc1 [CHEMBL141622] — higher, 6.469
- O=c1c2ccccc2ncn1CCC1CCN(Cc2ccccc2)CC1 [CHEMBL140328] — higher, 5.921
- O=C1Cc2ccccc2CN1CCC1CCN(Cc2ccccc2)CC1 [CHEMBL140990] — higher, 7.77
- O=C(CCC1CCN(Cc2cccc([N+](=O)[O-])c2)CC1)c1ccc2c(c1)NCCCC2 [CHEMBL307832] — higher, 6.409
- O=C1Nc2ccccc2CN1CCC1CCN(Cc2ccccc2)CC1 [CHEMBL141276] — higher, 7.886
- O=C(c1ccc([N+](=O)[O-])cc1)N(CCC1CCN(Cc2ccccc2)CC1)c1ccccc1 [CHEMBL126354] — higher, 8.268
- COc1ccc(C(=O)N(CCC2CCN(Cc3ccccc3)CC2)c2ccccc2)cc1 [CHEMBL141873] — higher, 6.229
- O=C(CCC1CCN(Cc2ccccc2)CC1)c1ccc2c(c1)CCN2 [CHEMBL75110] — higher, 7.699
- N#Cc1ccc2c(CCC3CCN(Cc4ccccc4)CC3)noc2c1 [CHEMBL92775] — higher, 6.996
- O=C(CCC1CCN(Cc2ccccc2)CC1)c1ccc2c(c1)CCCN2c1ccccc1 [CHEMBL1083662] — higher, 7.268
- CCN1CCCCc2ccc(C(=O)CCC3CCN(Cc4ccccc4)CC3)cc21 [CHEMBL310467] — higher, 6.425
- COc1ccc(N(CCC2CCN(Cc3ccccc3)CC2)C(C)=O)cc1 [CHEMBL141801] — higher, 6.155
- O=C(c1ccc(F)cc1)N(CCC1CCN(Cc2ccccc2)CC1)c1ccccc1 [CHEMBL140737] — higher, 7.745
- Brc1ccc2c(CCC3CCN(Cc4ccccc4)CC3)noc2c1 [CHEMBL330004] — higher, 7.301
- CC(=O)N(CCC1CCN(Cc2ccccc2)CC1)c1cccc(F)c1 [CHEMBL141167] — higher, 7.187
- Cc1cccc(CN2CCC(CCC(=O)c3ccc4c(c3)CCN4)CC2)c1 [CHEMBL306179] — higher, 7.301
- c1ccc(CN2CCC(CNc3ccc(-c4ccccc4)nn3)CC2)cc1 [CHEMBL1083367] — within 0.2 log units, 4.252
- COc1ccccc1CN1CCC(CCC(=O)c2ccc3c(c2)NCCCC3)CC1 [CHEMBL309173] — higher, 5.576
- CN1CCc2cc(C(=O)CCC3CCN(Cc4ccccc4)CC3)ccc21 [CHEMBL311017] — higher, 8
- O=C1CCc2cc3c(CCC4CCN(Cc5ccccc5)CC4)noc3cc2N1 [CHEMBL329231] — higher, 9.244
- O=C1c2ccccc2C(=O)N1CCC1CCN(Cc2ccccc2)CC1 [CHEMB L106891] — higher, 7.097
- COc1ccccc1CN1CCC(CCC(=O)c2ccc3c(c2)CCN3)CC1 [CHEMBL306776] — higher, 6.09
- CC(=O)Nc1ccc2c(c1)C(=O)N(CCC1CCN(Cc3ccccc3)CC1)C2=O [CHEMBL433678] — higher, 8.553
- O=C(CCC1CCN(Cc2cccc(Cl)c2)CC1)c1ccc2c(c1)NCCCC2 [CHEMBL420378] — higher, 6.478
- O=C(CCC1CCN(Cc2ccccc2)CC1)c1ccc2c(c1)NCCC2 [CHEMBL73593] — higher, 6.785
- O=C1Cc2c(ccc3c(CCC4CCN(Cc5ccccc5)CC4)noc23)N1 [CHEMBL95020] — higher, 8.444
- O=C(Nc1ccc2c(c1)C(=O)N(CCC1CCN(Cc3ccccc3)CC1)C2=O)c1ccccc1 [CHEMBL138107] — higher, 8.921
- O=C(CCC1CCN(Cc2ccccc2)CC1)c1ccc2c(c1)CCCN2 [CHEMBL1083661] — higher, 7.268
- CN1CCCc2cc(C(=O)CCC3CCN(Cc4ccccc4)CC3)ccc21 [CHEMBL1083660] — higher, 7.62
- Cc1nc2ccc(C(=O)CCC3CCN(Cc4ccccc4)CC3)cc2s1 [CHEMBL1084275] — higher, 8.167
- CN(CCCCNc1ccc(-c2ccccc2)nn1)Cc1ccccc1 [CHEMBL1084257] — higher, 4.959
- O=C1c2ccccc2NCN1CCC1CCN(Cc2ccccc2)CC1 [CHEMBL141810] — higher, 6.097
- Cc1nc2ccc(C(=O)CCC3CCN(Cc4ccccc4)CC3)cc2[nH]1 [CHEMBL1084790] — higher, 7.921
- O=C(CCC1CCN(Cc2cccc(F)c2)CC1)c1ccc2c(c1)CCN2 [CHEMBL308807] — higher, 7.796
- CCCN1CCCCc2ccc(C(=O)CCC3CCN(Cc4ccccc4)CC3)cc21 [CHEMBL307513] — higher, 5.876
- Cc1ccc2onc(CCC3CCN(Cc4ccccc4)CC3)c2c1 [CHEMBL433379] — higher, 8.108
- COc1ccc2c(c1)C(=O)N(CCC1CCN(Cc3ccccc3)CC1)C2=O [CHEMBL140770] — higher, 8.097
- CN(CCCCCNc1ccc(-c2ccccc2)nn1)Cc1ccccc1 [CHEMBL1083057] — higher, 6.131
- O=c1c2ccccc2ccn1CCC1CCN(Cc2ccccc2)CC1 [CHEMBL141203] — higher, 5.959
- O=C1Cc2ccccc2C(=O)N1CCC1CCN(Cc2ccccc2)CC1 [CHEMBL141042] — higher, 7.638
- O=C(Nc1ccccc1)c1ccc2c(c1)C(=O)N(CCC1CCN(Cc3ccccc3)CC1)C2=O [CHEMBL1084256] — higher, 8.658
- COc1cccc(N(CCC2CCN(Cc3ccccc3)CC2)C(C)=O)c1 [CHEMBL127527] — higher, 7.337
- O=C1c2ccc([N+](=O)[O-])cc2C(=O)N1CCC1CCN(Cc2ccccc2)CC1 [CHEMBL105874] — higher, 7.903
- O=C(c1ccccc1)c1ccc2c(c1)C(=O)N(CCC1CCN(Cc3ccccc3)CC1)C2=O [CHEMBL140999] — higher, 8.62
- O=C(c1ccncc1)N(CCC1CCN(Cc2ccccc2)CC1)c1ccccc1 [CHEMBL340621] — higher, 7.194
- Cc1cc(-c2ccccc2)n[nH]c1=NCCC1CCN(Cc2ccccc2)CC1 [CHEMBL94054] — higher, 6.495
- O=C1c2cccnc2C(=O)N1CCC1CCN(Cc2ccccc2)CC1 [CHEMBL140106] — higher, 7.886
- O=C(CCC1CCN(Cc2ccccc2)CC1)c1ccc2c(c1)CCN2c1ccccc1 [CHEMBL1085858] — higher, 7.167
- O=C(CCC1CCN(Cc2ccccc2)CC1)c1ccc2[nH]c(-c3ccccc3)nc2c1 [CHEMBL1082436] — higher, 7.481
- CCN1CCc2cc(C(=O)CCC3CCN(Cc4ccccc4)CC3)ccc21 [CHEMBL308793] — higher, 7.959
- CCC(=O)N(CCC1CCN(Cc2ccccc2)CC1)c1ccccc1 [CHEMBL141853] — higher, 6.081
- O=C1c2cccc([N+](=O)[O-])c2C(=O)N1CCC1CCN(Cc2ccccc2)CC1 [CHEMBL141001] — higher, 8.046
- O=C1c2ccccc2CCN1CCC1CCN(Cc2ccccc2)CC1 [CHEMBL142014] — higher, 6
- O=C1Cc2cc3onc(CCC4CCN(Cc5ccccc5)CC4)c3cc2N1 [CHEMBL328468] — higher, 9.022
- CN1CCCc2ccc(C(=O)CCC3CCN(Cc4ccccc4)CC3)cc21 [CHEMBL76470] — higher, 7.444
- O=C1c2ccccc2CN1CCC1CCN(Cc2ccccc2)CC1 [CHEMBL333909] — higher, 7.009
- CCn1c(C)nc2cc(C(=O)CCC3CCN(Cc4ccccc4)CC3)ccc21 [CHEMBL1082435] — higher, 8.367
- O=C(CCC1CCN(Cc2cccc(F)c2)CC1)c1ccc2c(c1)NCCCC2 [CHEMBL308093] — higher, 6.839
- CN(CCNc1ccc(-c2ccccc2)nn1)Cc1ccccc1 [CHEMBL1086185] — lower, 3.77
- O=C1Cc2cc3c(CCC4CCN(Cc5ccccc5)CC4)noc3cc2N1 [CHEMBL359570] — higher, 9.481
- O=c1[nH]c2cc(Cl)ccc2c(=O)n1CCC1CCN(Cc2ccccc2)CC1 [CHEMBL138552] — higher, 8.347
- O=C(CCC1CCN(Cc2ccccc2Cl)CC1)c1ccc2c(c1)CCN2 [CHEMBL306175] — higher, 7.119
- O=C(CCC1CCN(Cc2ccccc2)CC1)c1ccc2c(c1)OCO2 [CHEMBL1082434] — higher, 7.523
- Nc1cccc2c1C(=O)N(CCC1CCN(Cc3ccccc3)CC1)C2=O [CHEMBL138442] — higher, 7.959

System: bAchE
Assay: not given
Settings: read-out: bAchE IC50; Tacrine (Ellman method); source not given; cited from earlier work

For `Nc1c2c(nc3ccccc13)CCCC2` [Tacrine], the IC50 is listed as 0.058 µM.
